The subject of data set [1] is HeLa cells. The data set is described as follows: Flow cytometric studies of peptide uptake. It is filed as cell-based, human. To be noted: for uptake of chimeric peptide versus parent CPP: CF-labelled, 10 min, several peptide concentrations, flow cytometry. As to the method: Finally, cells were diluted with cold HBSS and inspected.
For a further data set, the system named is MCF-7 cells. Nature of the data set: MTT cell viability assay. It is filed as cell-based, human. To be noted: 24 h, 1-100 µM peptide. As to the method: (§1) We used the following cell lines: HEK 293 (human embryonal kidney), HeLa (human cervix carcinoma), MCF-7 (human breast adenocarcinoma), HT-29 (human colon adenocarcinoma), K-562 (human chronic myeloid leukemia) and Jurkat (human T cell leukemia). All cells were cultured in 75 cm^2 culture flasks at 37 °C and 5% CO2 in a humidified atmosphere and split when confluent. For HEK 293 cells Dulbecco’s Modified Eagle Medium/ Ham’s F12 (without L-glutamine) containing 15% heat-inactivated foetal calf serum was used. HeLa and Jurkat cells were grown in supplemented RPMI 1640 (with L-glutamine) with 10% heat-inactivated foetal calf serum, MCF-7 cells in Dulbecco’s Modified Eagle Medium/ Ham’s F12 (without L-glutamine) containing 10% heat-inactivated foetal calf serum and 1% glutamine, and HT-29 and K-562 cells in Dulbecco’s Modified Eagle Medium supplemented with 10% heat-inactivated foetal calf serum. Detachment and dissociation of confluent cells was done by Trp/EDTA (0.05%/0.02% in PBS). For microscopic studies cells were seeded in glass-bottomed 8-well plates, whereas cells for cell viability and flow cytometric studies were cultured in 96-well plates.

For a further data set, the system named is HT-29 cells. The data set is described as follows: MTT cell viability assay. To be noted: 24 h, 1-100 µM peptide. Type of data set: cell-based, human. As to the method: as §1
Another data set concerns K562 cells. Nature of the data set: Flow cytometric analysis of cell viability (FDA/PI staining). It is filed as cell-based, human. The conditions noted are these: flow cytometry FDA/PI, 24 h, 1-50 µM peptide. As to the method:
as §1
(§2) Untreated cells were used as negative control.
(In general: A flow cytometer gives signals particle by particle.)

In a further data set the test system is Jurkat cells. The data set is described as above. It is filed as cell-based, human. To be noted: flow cytometry FDA/PI, 24 h, 1-50 µM peptide. As to the method:
as §1, §2

Data set [2] deals with HeLa cells. The data set is described as follows: Resazurin-based cell viability assay. Also on record: species or system human. To be noted: 24 h incubation, up to 100 µM peptide. As to the method:
as §1

Data set [3] relates to several cell lines (MCF-7, HT-29, HEK293, K562, Jurkat). The conditions noted are these: for cytotoxicity, several cell lines: several cell lines (MCF-7, HT-29, HEK293, K562, Jurkat), concentrations of up to 100 µM.
Protocol: The effect of the peptides on the viability of HT-29 and MCF-7 cells was checked by using the MTT-assay. Therefore, cells were cultivated to subconfluency under standard conditions in 96-well plates. The treatment was performed with 1-100 µM of the peptides for 24 h. Then, 10-fold stock solution of MTT reagent (5 mg/mL in medium) was added to each sample, and the cells were incubated for further 2 h. Formazan crystals were solubilised with 200 µL DMSO per well. After incubation for 15 min at 400 rpm and RT, absorbance was measured with a Tecan Saphire plate reader (560 nm, reference filter 630 nm).
The viability after peptide treatment (1-50 µM peptide solutions) for 24 h of the suspension cell lines Jurkat and K562 was tested by using flow cytometry. For this purpose, 2.5 × 10^5 cells per sample were stained with fluorescein diacetate (FDA) (0.04 µg/100 µL cell suspension) and propidium iodide (PI) (25 µg/100 µL cell suspension) in FACS buffer (1% BSA in PBS). Samples were incubated for 15 min at RT in the dark, washed and resuspended in FACS buffer.
Viability of the stained cells was analysed using a FACS®Calibur and CellQuest Pro analysis software (both Becton Dickinson, Franklin Lakes, USA) and is represented as relative cell number of viable cells. Untreated cells were used as negative control. Excitation and emission settings were 488 nm and 525–550 nm for FDA and 488 nm and 564–606 nm for PI staining.
Data set [4] has as its system MDA-MB-231 breast cancer cells. To be noted: cited from earlier work. The source says:
(§3) Therefore, we further elucidated the cytotoxicity profiles of the chimeric peptides for several cell lines (including MCF-7, HeLa and HT-29 cells, as well as suspension cell lines K562 and Jurkat).

A further data set relates to K562 erythrocytes. To be noted: cited from earlier work.
From the text: as §3

Positions of bridges follow the written chain, without caps; N, C: chain ends. Residues, ends and D or L forms follow the SMILES beside them. Chains are numbered I, II in the order given.

For orientation: IC50 means the concentration needed to halve the response being measured. High values mean lower potency, low ones higher potency. Regarding `CC(C)C[C@H](NC(=O)CN)C(=O)N[C@@H](CC(C)C)C(=O)N[C@@H](CCC(=O)O)C(=O)N[C@@H](C)C(=O)N[C@@H](CC(C)C)C(=O)N[C@@H](C)C(=O)N[C@@H](CCC(=O)O)C(=O)N[C@@H](CC(C)C)C(=O)N[C@@H](CC(C)C)C(=O)N[C@@H](CCC(=O)O)C(=O)NCC(=O)N[C@@H](CCCNC(=N)N)C(=O)N[C@@H](CCCCN)C(=O)N[C@@H](CCCCN)C(=O)N[C@@H](CCCNC(=N)N)C(=O)N[C@@H](CCCNC(=N)N)C(=O)N[C@@H](CCC(N)=O)C(=O)N[C@@H](CCCNC(=N)N)C(=O)N[C@@H](CCCNC(=N)N)C(=O)N[C@@H](CCCNC(=N)N)C(=O)N1CCC[C@H]1C(=O)N1CCC[C@H]1C(=O)N[C@@H](CCC(N)=O)C(N)=O` [N-E5L-Tat(48-60)] (H-GLLEALAELLEGRKKRRQRRRPPQ-NH2), the “uptake of chimeric peptide versus parent CPP” value with HeLa cells [1] is given as “higher uptake values”. Also, the IC50 with MCF-7 cells was 39.3 ± 9.4 µM; in the data set on HT-29 cells it was 90.9 ± 0.2 µM; in the data set on K562 cells, greater than 30 µM; in the data set with Jurkat cells, 7.9 ± 0.8 µM; in the data set with HeLa cells [2] it was 29.4 ± 3.9 µM.
Turning to `CC[C@H](C)[C@H](NC(=O)[C@H](C)NC(=O)[C@@H](NC(=O)[C@H](CCC(N)=O)NC(=O)[C@@H]1CCCN1C(=O)[C@H](Cc1ccccc1)NC(=O)[C@@H](NC(=O)[C@H](Cc1c[nH]cn1)NC(=O)[C@H](Cc1ccccc1)NC(=O)[C@H](CCCCNC(=O)[C@H](C)NC(=O)[C@H](Cc1ccccc1)NC(=O)[C@H](CCCCN)NC(=O)[C@H](CCCNC(=N)N)NC(=O)[C@H](CCCCN)NC(=O)[C@H](CCCCN)NC(=O)[C@H](CCCCN)NC(=O)[C@@H]1CCCN1C(=O)[C@H](C)NC(=O)[C@H](CCCCN)NC(=O)[C@H](CCCNC(=N)N)NC(=O)[C@H](CCCCN)NC(=O)[C@@H](N)CCCCN)NC(=O)[C@H](CCC(=O)O)NC(=O)[C@H](CC(C)C)NC(=O)[C@H](CC(C)C)NC(=O)[C@H](CCC(=O)O)NC(=O)[C@H](C)NC(=O)[C@H](CC(C)C)NC(=O)[C@H](C)NC(=O)[C@H](CCC(=O)O)NC(=O)[C@H](CC(C)C)NC(=O)[C@H](CC(C)C)NC(=O)CN)[C@@H](C)O)[C@@H](C)O)C(=O)NCC(=O)N[C@H](C(=O)NCC(=O)N[C@@H](C)C(=O)N1CCC[C@H]1C(N)=O)C(C)C` [N-E5L-hCT(18-32)-k7] (I: H-GLLEALAELLEKFHTFPQTAIGVGAP-NH2 / II: H-KKRKAPKKKRKFA; amide I:12-II:C; N-terminus assumed), the “uptake of chimeric peptide versus parent CPP” value with HeLa cells [1] was “higher uptake values”. Moreover, the IC50 was 37.8 ± 6.5 µM with MCF-7 cells; 59.1 ± 0.1 µM in the data set with HT-29 cells; greater than 30 µM with K562 cells; 11.4 ± 4.2 µM with Jurkat cells; 33.1 ± 3.3 µM in the data set on HeLa cells [2].
With `CC[C@H](C)[C@H](NC(=O)[C@H](CCCCN)NC(=O)[C@H](CC(N)=O)NC(=O)[C@H](CCCNC(=N)N)NC(=O)[C@H](Cc1ccccc1)NC(=O)[C@H](CCCCN)NC(=O)[C@H](CCCNC(=N)N)NC(=O)[C@H](CC(C)C)NC(=O)[C@H](CCCNC(=N)N)NC(=O)[C@H](CCCCN)NC(=O)[C@H](CCCNC(=N)N)NC(=O)[C@H](CC(C)C)NC(=O)CNC(=O)[C@H](CCC(=O)O)NC(=O)[C@H](CC(C)C)NC(=O)[C@H](CC(C)C)NC(=O)[C@H](CCC(=O)O)NC(=O)[C@H](C)NC(=O)[C@H](CC(C)C)NC(=O)[C@H](C)NC(=O)[C@H](CCC(=O)O)NC(=O)[C@H](CC(C)C)NC(=O)[C@H](CC(C)C)NC(=O)CN)C(=O)N[C@@H](CCCCN)C(=O)N[C@@H](CCC(=O)O)C(=O)N[C@@H](CCCCN)C(N)=O` [N-E5L-sC18] (H-GLLEALAELLEGLRKRLRKFRNKIKEK-NH2), the “uptake of chimeric peptide versus parent CPP” value in the data set on HeLa cells [1] was “higher uptake values”. The IC50 in the data set on MCF-7 cells is 30.8 ± 4.1 µM; in the data set on HT-29 cells it was 72.1 ± 0.1 µM; in the data set with K562 cells, greater than 30 µM; in the data set on Jurkat cells, 7.3 ± 1.7 µM; in the data set on HeLa cells [2], 31.8 ± 1.9 µM.
GLLEALAELLE [N-E5L]: in the data set with HeLa cells [1] (CF-labelled analogue, 60 min, several concentrations, fluorescence microscopy and flow cytometry), the “cellular translocation of the peptide alone” value was “unable to translocate in cells”. The “cytotoxicity, several cell lines” value in data set [3] is reported as “no cytotoxicity was observed”.
Take GLRKRLRKFRNKIKEK [sC18]: the “cytotoxicity, several cell lines” value in [3] is on record as “no cytotoxicity was observed”.
Take GRKKRRQRRRPPQ [Tat(48-60)]: in [4], the membrane toxicity entry is listed as “no membrane toxicity”. For the same compound, the haemolytic effect entry with K562 erythrocytes is “no haemolytic effect”. Moreover, the “cytotoxic effects, all tested cell lines” value in [3] (all tested cell lines, data not shown) is “no cytotoxic effects”.
